Experimental data taken from ChEMBL document CHEMBL1201862, “PubChem BioAssay data set” (2004).
Calls of active or inactive are those of the source.

Legend:
[1] = biological target: T1, E3 ubiquitin-protein ligase XIAP (Homo sapiens, UniProt P98170); assay: small molecules displacing peptide from XIAP – biochemical, IAP family, fluorescence polarization (AID 1018); type: functional
[2] = biological target: T1, E3 ubiquitin-protein ligase XIAP; assay: Counter Screen using XIAP-Bir3 for Chemical Antagonists of Bir1/2 domains of IAP-family anti-apoptotic proteins. [Related pubchem assays (depositor defined):AID1018, AID1449, AID1514, AID1638, AID1749, AID1750, AID488957, AID488963]
[3] = biological target: T2, Ubiquitin-conjugating enzyme E2 N (Homo sapiens, UniProt P61088); type: functional;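 note: Dose-response confirmation in a TR-FRET assay detecting UBC13-driven polyubiquitin chain formation, inhibition measured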
T2 sequence (P61088 whole entry): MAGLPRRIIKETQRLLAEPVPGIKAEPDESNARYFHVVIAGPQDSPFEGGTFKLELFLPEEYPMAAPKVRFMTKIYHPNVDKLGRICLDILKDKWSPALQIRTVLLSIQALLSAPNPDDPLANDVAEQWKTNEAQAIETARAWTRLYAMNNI

Integrin alpha-4 = Integrin alpha-4 (Homo sapiens, UniProt P13612); assay: allosteric modulators of alpha4 integrin VLA-4 – cell-based, LIBS antibody binding, flow cytometry, SAR follow-up (AID 488791); type: functional
Chain of Integrin alpha-4 (P13612 whole entry): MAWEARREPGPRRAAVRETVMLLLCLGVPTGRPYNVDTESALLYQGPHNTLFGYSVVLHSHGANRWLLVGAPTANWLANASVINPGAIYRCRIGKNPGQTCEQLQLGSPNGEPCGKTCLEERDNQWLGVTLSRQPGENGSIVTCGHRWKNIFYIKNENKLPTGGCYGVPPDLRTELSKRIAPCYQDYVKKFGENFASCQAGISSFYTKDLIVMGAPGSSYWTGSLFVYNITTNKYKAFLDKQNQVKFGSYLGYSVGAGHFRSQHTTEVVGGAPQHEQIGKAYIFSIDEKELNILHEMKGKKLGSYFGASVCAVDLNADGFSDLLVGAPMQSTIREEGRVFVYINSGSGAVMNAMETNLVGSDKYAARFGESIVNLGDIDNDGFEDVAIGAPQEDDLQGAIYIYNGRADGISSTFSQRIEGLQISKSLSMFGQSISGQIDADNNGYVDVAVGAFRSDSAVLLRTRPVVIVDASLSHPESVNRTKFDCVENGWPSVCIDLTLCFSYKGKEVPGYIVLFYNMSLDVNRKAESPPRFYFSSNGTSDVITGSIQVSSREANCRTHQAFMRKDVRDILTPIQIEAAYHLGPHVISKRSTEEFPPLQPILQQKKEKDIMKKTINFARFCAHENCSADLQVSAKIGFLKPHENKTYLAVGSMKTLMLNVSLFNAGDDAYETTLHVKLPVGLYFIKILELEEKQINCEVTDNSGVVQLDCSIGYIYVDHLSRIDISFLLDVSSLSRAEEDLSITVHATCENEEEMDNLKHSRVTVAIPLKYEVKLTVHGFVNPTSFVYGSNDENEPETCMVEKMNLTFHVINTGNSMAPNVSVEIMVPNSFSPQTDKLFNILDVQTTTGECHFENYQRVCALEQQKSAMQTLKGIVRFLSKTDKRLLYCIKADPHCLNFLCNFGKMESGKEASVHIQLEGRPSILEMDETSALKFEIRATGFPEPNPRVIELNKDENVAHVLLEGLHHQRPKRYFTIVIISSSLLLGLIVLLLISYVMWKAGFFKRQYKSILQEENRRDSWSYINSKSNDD

[4] = Luminescence Cell-Based Dose Retest to Confirm Inhibitors of Cancer Stem Cells. [Related pubchem assays (depositor defined):AID2717, AID2721]; type: functional; settings: Homo sapiens
[5] = biological target: Tyrosine-protein phosphatase non-receptor type 7 (Homo sapiens, UniProt P35236); assay: inhibition of hematopoietic tyrosine phosphatase HePTP – biochemical, set 2, SAR follow-up (AID 449736); type: functional
Chain of Tyrosine-protein phosphatase non-receptor type 7 (P35236 whole entry): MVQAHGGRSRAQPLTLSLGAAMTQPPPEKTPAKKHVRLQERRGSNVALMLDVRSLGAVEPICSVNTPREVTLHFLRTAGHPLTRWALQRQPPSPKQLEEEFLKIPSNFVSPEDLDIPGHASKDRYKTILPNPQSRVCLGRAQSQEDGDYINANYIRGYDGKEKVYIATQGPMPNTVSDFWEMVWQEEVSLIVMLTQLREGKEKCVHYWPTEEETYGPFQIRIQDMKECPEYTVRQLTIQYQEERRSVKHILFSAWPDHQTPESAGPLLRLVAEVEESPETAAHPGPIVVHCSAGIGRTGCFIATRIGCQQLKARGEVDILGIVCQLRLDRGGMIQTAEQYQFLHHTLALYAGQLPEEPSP

[6] = biological target: Glyceraldehyde-3-phosphate dehydrogenase (Homo sapiens, UniProt P04406)
Chain of Glyceraldehyde-3-phosphate dehydrogenase (P04406 whole entry): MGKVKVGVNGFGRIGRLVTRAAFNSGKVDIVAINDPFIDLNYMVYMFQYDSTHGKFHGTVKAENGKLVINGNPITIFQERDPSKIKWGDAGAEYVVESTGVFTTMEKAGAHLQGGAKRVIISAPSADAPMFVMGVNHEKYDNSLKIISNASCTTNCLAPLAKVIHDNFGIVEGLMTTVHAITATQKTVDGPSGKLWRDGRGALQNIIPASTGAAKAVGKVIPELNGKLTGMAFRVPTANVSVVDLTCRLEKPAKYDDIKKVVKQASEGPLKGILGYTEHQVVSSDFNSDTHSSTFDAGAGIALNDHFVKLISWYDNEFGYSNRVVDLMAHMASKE

[7] = biological target: T3, Alkaline phosphatase, tissue-nonspecific isozyme (Homo sapiens, UniProt P05186); assay: potency against alkaline phosphatase TNAP – biochemical, luminescent, dose response, SAR follow-up (AID 1056)
T3 sequence (P05186 whole entry): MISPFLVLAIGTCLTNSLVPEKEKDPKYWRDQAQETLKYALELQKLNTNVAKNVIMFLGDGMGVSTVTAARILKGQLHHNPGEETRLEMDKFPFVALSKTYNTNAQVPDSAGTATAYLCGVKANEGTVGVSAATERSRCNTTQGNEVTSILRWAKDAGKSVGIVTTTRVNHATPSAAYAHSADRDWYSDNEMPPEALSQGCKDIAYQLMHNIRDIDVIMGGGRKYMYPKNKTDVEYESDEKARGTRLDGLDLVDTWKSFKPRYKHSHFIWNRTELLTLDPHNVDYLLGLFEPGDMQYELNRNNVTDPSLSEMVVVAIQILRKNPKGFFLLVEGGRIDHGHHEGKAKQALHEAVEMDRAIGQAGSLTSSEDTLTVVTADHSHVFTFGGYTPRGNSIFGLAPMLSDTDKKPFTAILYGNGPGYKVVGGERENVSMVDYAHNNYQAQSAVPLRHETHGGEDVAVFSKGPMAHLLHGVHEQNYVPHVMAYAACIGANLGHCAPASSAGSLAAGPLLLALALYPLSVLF

[8] = biological target: Alkaline phosphatase, placental type (Homo sapiens, UniProt P05187); assay: human placental alkaline phosphatase inhibition – biochemical, luminescence, confirmation (AID 1512); type: functional
Chain of Alkaline phosphatase, placental type (P05187 whole entry): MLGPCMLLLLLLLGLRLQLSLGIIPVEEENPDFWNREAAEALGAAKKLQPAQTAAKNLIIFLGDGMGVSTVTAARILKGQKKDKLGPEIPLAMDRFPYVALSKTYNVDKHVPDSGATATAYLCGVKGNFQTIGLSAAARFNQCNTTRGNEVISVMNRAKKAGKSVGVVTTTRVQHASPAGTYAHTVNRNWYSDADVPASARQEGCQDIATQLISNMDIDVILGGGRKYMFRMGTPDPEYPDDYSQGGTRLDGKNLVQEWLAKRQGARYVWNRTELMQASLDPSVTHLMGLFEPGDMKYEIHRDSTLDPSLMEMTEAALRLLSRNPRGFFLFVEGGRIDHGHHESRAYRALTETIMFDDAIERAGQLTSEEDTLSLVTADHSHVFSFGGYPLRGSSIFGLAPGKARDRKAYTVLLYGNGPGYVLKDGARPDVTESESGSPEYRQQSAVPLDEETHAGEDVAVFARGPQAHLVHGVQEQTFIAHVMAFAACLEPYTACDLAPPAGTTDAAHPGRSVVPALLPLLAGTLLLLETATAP

[9] = HEK-293T viability loss after treatment – luminescence, T-cell screen hits, cytotoxicity control for TCR NF-kB inhibitor project, dose response (AID 489026); type: functional, cell-based;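 note: cells exposed to compound about 14 hours before the viability readout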
[10] = DRD fibroblast viability loss – cell-based, non-viral oncogenic, luminescence, dose response (AID 1934); type: functional; settings: Homo sapiens
[11] = biological target: G-protein coupled receptor 55 (Homo sapiens, UniProt Q9Y2T6); assay: selective activators of receptor GPR55 – imaging, U2OS cells, beta-arrestin-GFP redistribution, primary screen (AID 1961); type: functional
Chain of G-protein coupled receptor 55 (Q9Y2T6 whole entry): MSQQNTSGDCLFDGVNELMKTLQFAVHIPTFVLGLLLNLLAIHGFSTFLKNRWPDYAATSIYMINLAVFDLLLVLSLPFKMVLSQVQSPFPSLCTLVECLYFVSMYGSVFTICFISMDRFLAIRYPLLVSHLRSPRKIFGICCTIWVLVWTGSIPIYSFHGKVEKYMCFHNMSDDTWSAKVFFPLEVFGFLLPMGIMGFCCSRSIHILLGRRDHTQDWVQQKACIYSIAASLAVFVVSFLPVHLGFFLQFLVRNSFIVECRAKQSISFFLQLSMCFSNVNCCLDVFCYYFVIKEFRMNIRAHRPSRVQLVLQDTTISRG

BJ [12] = assay: cells; type: functional, cell-based; settings: Homo sapiens
[13] = viability of PTEN-deleted HCT116 cells – cell-based, HCT116 PTEN knockout, dose response (AID 1047); type: functional;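 note: HCT116 colon tumor cells with PTEN knocked out; cells exposed to compound for 60 hours before readout; potency for loss of cell viability measured by luminescence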
Hexokinase HKDC1 = biological target: T4, Hexokinase HKDC1 (Homo sapiens, UniProt Q2TB90); assay: inhibition of HKDC1 glucose phosphorylation – biochemical, W721R variant, dose response (AID 504729); type: functional
T4 sequence (Q2TB90 whole entry): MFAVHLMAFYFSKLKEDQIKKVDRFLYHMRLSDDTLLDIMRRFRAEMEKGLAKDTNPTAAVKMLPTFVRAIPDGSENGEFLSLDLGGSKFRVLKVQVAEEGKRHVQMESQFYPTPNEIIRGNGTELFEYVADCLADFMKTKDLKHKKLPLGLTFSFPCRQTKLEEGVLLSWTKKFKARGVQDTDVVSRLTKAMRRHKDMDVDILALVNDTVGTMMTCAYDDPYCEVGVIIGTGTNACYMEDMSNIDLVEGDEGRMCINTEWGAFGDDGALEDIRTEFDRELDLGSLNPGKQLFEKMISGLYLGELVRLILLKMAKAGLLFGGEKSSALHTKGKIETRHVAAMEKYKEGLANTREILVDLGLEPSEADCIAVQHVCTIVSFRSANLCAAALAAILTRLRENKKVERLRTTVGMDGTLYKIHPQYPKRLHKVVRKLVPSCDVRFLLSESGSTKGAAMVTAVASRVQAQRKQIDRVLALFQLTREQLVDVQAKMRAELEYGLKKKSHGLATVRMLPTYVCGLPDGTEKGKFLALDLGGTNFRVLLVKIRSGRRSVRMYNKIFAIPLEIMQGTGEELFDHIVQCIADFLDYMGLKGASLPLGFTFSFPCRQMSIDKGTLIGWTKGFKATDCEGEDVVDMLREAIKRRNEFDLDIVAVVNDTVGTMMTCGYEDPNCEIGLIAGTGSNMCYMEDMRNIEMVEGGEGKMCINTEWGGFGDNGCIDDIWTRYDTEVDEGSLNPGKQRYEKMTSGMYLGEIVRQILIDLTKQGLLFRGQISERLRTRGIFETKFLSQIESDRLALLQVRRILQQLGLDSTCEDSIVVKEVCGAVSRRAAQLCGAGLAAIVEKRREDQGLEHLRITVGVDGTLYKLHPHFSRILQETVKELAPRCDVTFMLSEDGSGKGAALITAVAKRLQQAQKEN

[14] = Trypanosoma cruzi growth suppression in host cells – NIH3T3 host cells, beta-gal luminescence, confirmation (AID 2044); type: functional, cell-based;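 note: intracellular parasites grown in NIH/3T3 mouse fibroblasts as host cells; luminescent beta-galactosidase reporter signal from transgenic T. cruzi replicating inside host cells; inhibitors lower the luminescence signal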
[15] = biological target: T5, Heat shock factor protein 1 (Mus musculus, UniProt P38532); assay: decrease of HSF1-responsive luciferase luminescence – cell-based, NIH3T3, dose retest, confirmation (AID 2382); type: functional;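 note: NIH3T3 fibroblasts with HSF1-driven luciferase reporter stressed by proteasome inhibitor MG132; luminescence from HSF1-driven luciferase expression after 8 hours of MG132 stress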
T5 sequence (P38532 whole entry): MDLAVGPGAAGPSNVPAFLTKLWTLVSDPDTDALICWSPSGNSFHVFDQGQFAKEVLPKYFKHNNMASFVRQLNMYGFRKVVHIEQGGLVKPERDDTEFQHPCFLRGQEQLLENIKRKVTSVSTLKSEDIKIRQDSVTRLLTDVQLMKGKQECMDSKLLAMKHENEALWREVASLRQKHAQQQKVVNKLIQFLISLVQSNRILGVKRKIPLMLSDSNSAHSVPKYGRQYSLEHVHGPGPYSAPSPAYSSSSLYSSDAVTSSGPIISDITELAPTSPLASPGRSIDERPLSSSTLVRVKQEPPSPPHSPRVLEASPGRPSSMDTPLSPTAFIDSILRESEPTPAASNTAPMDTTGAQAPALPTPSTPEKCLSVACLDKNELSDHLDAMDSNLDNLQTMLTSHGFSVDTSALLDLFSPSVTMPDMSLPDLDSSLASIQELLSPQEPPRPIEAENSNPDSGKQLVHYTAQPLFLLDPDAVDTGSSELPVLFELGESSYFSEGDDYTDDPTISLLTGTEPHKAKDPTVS

BJ [16] = assay: BJ-TERT-LT-ST fibroblast viability loss – cell-based, RAS-independent, luminescence, dose response (AID 1935); type: functional; settings: Homo sapiens;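 note: BJ fibroblasts immortalized with TERT plus LT and ST oncogenes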
[17] = biological target: T6, Replicative DNA helicase DnaB (Mycobacterium tuberculosis, UniProt P9WMR3); assay: DnaB intein splicing inhibitors, dose response, biochemical, cell-free fluorescence (AID 449749); type: functional
T6 sequence (P9WMR3 whole entry): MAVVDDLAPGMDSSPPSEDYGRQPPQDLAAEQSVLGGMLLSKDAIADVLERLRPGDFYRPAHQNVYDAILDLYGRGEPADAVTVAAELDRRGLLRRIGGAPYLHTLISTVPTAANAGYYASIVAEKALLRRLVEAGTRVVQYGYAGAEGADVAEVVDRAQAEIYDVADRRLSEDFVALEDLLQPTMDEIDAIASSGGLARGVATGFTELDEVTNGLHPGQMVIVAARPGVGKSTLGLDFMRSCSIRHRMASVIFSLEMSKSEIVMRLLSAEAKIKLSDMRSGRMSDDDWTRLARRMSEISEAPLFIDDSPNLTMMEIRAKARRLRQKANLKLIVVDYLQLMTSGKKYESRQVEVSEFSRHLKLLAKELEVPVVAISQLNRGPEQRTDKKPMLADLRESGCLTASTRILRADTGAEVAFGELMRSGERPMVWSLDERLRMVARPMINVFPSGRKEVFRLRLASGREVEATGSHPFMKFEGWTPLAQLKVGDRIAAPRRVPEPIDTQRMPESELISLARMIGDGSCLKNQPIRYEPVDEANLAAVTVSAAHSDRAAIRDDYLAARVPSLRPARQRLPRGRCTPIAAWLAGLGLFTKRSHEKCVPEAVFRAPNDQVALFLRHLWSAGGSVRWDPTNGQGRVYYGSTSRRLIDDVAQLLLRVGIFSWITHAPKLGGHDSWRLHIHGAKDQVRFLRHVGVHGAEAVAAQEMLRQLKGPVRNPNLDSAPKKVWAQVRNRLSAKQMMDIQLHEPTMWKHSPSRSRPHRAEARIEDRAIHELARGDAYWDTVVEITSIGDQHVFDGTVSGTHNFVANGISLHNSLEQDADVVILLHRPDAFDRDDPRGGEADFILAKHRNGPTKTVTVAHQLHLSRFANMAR

[18] = Fluorescence-based cell-based high throughput dose response assay for inhibitors of the interaction of nucleotide-binding oligomerization domain containing 2 (NOD2) and the receptor-interacting serine-threonine kinase 2 (RIPK2).; type: functional; settings: Homo sapiens
[19] = NIH3T3 cell viability loss – ATP luminescence, mouse fibroblasts, counter-screen, dose response (AID 2010); type: functional, cell-based;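 note: cells exposed to compound for about 90 hours before reading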
BJ [20] = assay: BJ-TERT fibroblast viability loss – cell-based, RAS-independent, luminescence, dose response (AID 1933); type: functional; settings: Homo sapiens
[21] = viability of HCT116 lacking mutant beta-catenin – cell-based, human colon tumor, dose response (AID 1045); type: functional;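 note: HCT116 colon tumor cells with beta catenin knocked out; cells exposed to compound for 60 hours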
Protein RecA = biological target: T7, Protein RecA (Mycobacterium tuberculosis, UniProt P9WHJ3); assay: Fluorescence Cell-Free Homogeneous Dose Retest to Identify Inhibitors of RecA-Intein Splicing Activity. [Related pubchem assays (depositor defined):AID2097, AID2223, AID489010, AID492950]; type: functional
T7 sequence (P9WHJ3 whole entry): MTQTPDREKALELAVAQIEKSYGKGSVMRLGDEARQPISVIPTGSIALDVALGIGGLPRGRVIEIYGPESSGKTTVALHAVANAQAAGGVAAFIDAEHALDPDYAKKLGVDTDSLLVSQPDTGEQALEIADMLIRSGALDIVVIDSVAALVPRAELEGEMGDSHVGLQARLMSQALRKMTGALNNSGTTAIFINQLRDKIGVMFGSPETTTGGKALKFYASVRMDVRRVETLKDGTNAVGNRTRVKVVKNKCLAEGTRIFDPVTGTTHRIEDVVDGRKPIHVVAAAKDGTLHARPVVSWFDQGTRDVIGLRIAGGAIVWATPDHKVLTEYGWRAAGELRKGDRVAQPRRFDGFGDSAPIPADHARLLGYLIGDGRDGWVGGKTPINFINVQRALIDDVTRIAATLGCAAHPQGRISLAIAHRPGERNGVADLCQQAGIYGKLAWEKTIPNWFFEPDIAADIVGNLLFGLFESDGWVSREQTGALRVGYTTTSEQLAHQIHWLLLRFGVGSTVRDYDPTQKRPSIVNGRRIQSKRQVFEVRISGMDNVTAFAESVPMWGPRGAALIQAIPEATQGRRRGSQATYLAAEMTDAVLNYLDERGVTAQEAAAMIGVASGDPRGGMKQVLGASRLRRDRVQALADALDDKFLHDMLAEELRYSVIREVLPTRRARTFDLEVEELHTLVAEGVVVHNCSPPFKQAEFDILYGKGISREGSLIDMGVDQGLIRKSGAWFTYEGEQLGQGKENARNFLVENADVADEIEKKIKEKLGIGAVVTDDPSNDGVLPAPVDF

T1 sequence (P98170 whole entry): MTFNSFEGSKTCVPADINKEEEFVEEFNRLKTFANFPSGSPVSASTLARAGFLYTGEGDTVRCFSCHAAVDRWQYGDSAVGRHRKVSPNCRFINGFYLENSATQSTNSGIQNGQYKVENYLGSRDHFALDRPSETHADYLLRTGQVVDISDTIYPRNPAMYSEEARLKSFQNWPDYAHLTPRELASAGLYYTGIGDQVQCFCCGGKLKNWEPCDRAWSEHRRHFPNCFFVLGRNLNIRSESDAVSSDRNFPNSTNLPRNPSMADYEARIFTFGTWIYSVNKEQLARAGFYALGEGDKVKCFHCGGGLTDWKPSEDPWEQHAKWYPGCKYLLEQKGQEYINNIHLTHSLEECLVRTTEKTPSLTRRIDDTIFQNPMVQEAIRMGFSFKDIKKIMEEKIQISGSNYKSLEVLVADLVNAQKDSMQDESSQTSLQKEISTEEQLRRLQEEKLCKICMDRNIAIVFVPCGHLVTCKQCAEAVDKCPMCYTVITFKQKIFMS

SMILES: O=C(NCCCN1CCOCC1)c1ccc(Br)cc1Br
- IC50 [1]: > 100 µM (not active)
- IC50 [2]: > 100 µM (inactive)

SMILES: c1ccc2c(-c3ccc(OCCN4CCCCC4)cc3)c(-c3ccsc3)sc2c1
- IC50 [3]: > 20 µM (inactive)
- EC50 (Integrin alpha-4): > 69.8 µM (inactive)
- AC50 [4]: 1.27 µM (active)

SMILES: NS(=O)(=O)c1ccc(NC(=S)Nc2ccccc2)cc1
- IC50 [5]: 25 µM (active)

SMILES: Cc1ccccc1OCc1nc2c3cnn(C)c3ncn2n1
- IC50 [6]: > 100 µM (not active)
- IC50 [7]: > 100 µM (inactive)
- IC50 [8]: > 100 µM (inactive)

SMILES: COc1cccc(-c2cc(=O)c3cc(NC(=O)c4ccccc4)ccc3[nH]2)c1
- IC50 [9]: > 80 µM (inactive)

SMILES: COC(=O)[C@@H]1[C@@H](C(=O)OC)C2(c3ccccc3-c3ccccc32)N(c2ccc(Cl)cc2)N1C#N
- EC50 [10]: 4.84 µM (active)
- EC50 [11]: > 32 µM (inactive)
- EC50 (BJ [12]): 6.23 µM (active)
- EC50 (Integrin alpha-4): > 49.2 µM (inactive)
- EC50 [13]: 7.77 µM (active)
- IC50 (Hexokinase HKDC1): 20.4 µM (inactive)
- EC50 [14]: 2.24 µM (active)
- EC50 [15]: 8.22 µM (inconclusive)
- EC50 (BJ [16]): 5.02 µM (active)
- AC50 [17]: > 120 µM (inactive)
- IC50 [18]: 1.77 µM (active)
- EC50 [19]: 6.87 µM (active)
- EC50 (BJ [20]): 2.87 µM (inconclusive)
- EC50 [21]: 8.83 µM (active)
- EC50 (Protein RecA): 5.38 µM (active)

SMILES: Cn1ncc(Cl)c1C(=O)N1CCN(C(=O)c2ccco2)CC1
- IC50 [1]: > 100 µM (not active)
- IC50 [2]: > 100 µM (inactive)

SMILES: NS(=O)(=O)c1ccc(NC(=O)N2CCN(Cc3cccnc3)CC2)cc1
- IC50 [5]: > 100 µM (inactive)
